{"source": "ChEMBL document CHEMBL5108044", "about": "“Discovery of a Novel Potent STAT3 Inhibitor HP590 with Dual p-Tyr705/Ser727 Inhibitory Activity for Gastric Cancer Treatment” (J Med Chem, 2022)", "key": {"[1]": {"molecular_target": "T1, Signal transducer and activator of transcription 3 (Homo sapiens, UniProt P40763)", "T1 sequence (P40763 whole entry)": "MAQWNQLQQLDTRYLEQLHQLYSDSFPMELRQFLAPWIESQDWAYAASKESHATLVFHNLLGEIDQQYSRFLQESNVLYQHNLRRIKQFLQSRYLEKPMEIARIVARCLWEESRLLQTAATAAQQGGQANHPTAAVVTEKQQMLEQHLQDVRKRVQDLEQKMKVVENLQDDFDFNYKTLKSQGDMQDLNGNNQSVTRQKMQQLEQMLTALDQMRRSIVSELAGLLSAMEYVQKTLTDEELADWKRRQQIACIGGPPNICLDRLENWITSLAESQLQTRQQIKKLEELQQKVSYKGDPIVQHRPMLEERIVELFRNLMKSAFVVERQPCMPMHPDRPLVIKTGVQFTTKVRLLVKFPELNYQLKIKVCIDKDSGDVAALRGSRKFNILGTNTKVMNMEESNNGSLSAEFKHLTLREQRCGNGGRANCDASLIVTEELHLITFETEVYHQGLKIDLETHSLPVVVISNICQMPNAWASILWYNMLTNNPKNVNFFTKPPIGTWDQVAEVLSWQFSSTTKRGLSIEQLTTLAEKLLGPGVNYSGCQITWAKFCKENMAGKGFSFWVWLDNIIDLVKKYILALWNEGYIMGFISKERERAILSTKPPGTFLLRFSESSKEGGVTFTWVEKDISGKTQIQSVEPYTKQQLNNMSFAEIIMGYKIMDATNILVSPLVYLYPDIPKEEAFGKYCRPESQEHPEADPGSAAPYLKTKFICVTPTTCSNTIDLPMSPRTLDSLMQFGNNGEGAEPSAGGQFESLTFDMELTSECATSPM", "assay": "Inhibition of STAT3 in human AGS cells assessed as downregulation of Bcl2 expression at 10 to 40 nM incubated for 24 hrs by RT-PCR analysis", "type": "cell-based", "details": "dose 10-40 nM"}, "[2]": {"tested_on": "AGS", "assay": "Induction of apoptosis in human AGS cells assessed as early apoptic cells 20 nM incubated for 48 hrs by FITC-annexin V/propidium iodide staining based flow cytometry (reference value: 0.55%)", "type": "functional"}, "[3]": {"molecular_target": "T1, Signal transducer and activator of transcription 3", "assay": "Inhibition of STAT3 phosphorylation at Ser727 residue in human MGC-803 cells incubated upto 24 hrs by Western blotting analysis", "type": "cell-based", "details": "dose <= 40.0 nM, DDE = dose-dependent effect"}, "[4]": {"tested_on": "MKN-45", "assay": "Induction of apoptosis in human MKN-45 cells assessed as early apoptic cells 5 nM incubated for 48 hrs by FITC-annexin V/propidium iodide staining based flow cytometry (reference value: 2.79%)", "type": "functional"}, "[5]": {"molecular_target": "T1, Signal transducer and activator of transcription 3", "assay": "Inhibition of STAT3 phosphorylation at Ser727 residue in human MGC-803 cells upto 40 nM incubated upto 24 hrs by Western blotting analysis", "type": "cell-based"}, "[6]": {"molecular_target": "T1, Signal transducer and activator of transcription 3", "assay": "Inhibition of STAT3 phosphorylation at Tyr705 residue in human MGC-803 cells upto 40 nM incubated upto 24 hrs by Western blotting analysis", "type": "cell-based"}, "[7]": {"molecular_target": "T1, Signal transducer and activator of transcription 3", "assay": "Inhibition of STAT3 in human AGS cells assessed as downregulation of c-Myc expression incubated up to 24 hrs by western blot analysis", "type": "cell-based", "details": "dose <= 40.0 nM, DDE = dose-dependent effect"}, "[8]": {"molecular_target": "Proto-oncogene tyrosine-protein kinase Src (Homo sapiens, UniProt P12931)", "sequence (P12931 2-536 limits assumed)": "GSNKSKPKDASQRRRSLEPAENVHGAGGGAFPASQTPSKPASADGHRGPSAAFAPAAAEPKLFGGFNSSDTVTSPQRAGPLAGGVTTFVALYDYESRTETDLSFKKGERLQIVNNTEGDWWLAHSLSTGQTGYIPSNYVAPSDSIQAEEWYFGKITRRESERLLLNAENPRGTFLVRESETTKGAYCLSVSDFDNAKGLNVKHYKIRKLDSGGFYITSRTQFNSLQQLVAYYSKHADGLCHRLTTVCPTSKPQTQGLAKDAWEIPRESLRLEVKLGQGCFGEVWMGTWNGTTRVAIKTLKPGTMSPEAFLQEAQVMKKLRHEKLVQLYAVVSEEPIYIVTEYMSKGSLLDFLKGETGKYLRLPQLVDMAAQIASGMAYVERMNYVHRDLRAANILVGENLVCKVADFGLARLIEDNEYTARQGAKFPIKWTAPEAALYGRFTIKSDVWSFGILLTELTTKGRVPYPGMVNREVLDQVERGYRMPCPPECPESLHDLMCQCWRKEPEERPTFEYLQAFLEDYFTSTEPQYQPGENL", "assay": "Inhibition of SRC (unknown origin)"}, "[9]": {"tested_on": "MKN-45", "assay": "In vivo inhibition of STAT3 in human MKN-45 cells xenografted in BALB/c nude mouse assessed as reduction in STAT3 gene expression at 25 to 50 mg/kg, po qd administered for 5 weeks by Western blot analysis", "type": "functional, organism-based", "details": "dose 25-50 mg/kg"}, "[10]": {"tested_on": "MKN-45", "assay": "Inhibition of mitochondrial respiration in human MKN-45 cells assessed as oxygen consumption rate incubated for 1 hr by Seahorse XF24 extracellular flux analyzer", "type": "functional, cell-based", "details": "dose 1-100 nM, DDE = dose-dependent effect"}, "[11]": {"molecular_target": "T1, Signal transducer and activator of transcription 3", "assay": "Inhibition of STAT3 phosphorylation at Ser727 residue in human MKN-45 cells upto 40 nM by Western blotting analysis", "type": "cell-based", "details": "time <= 24.0 hrs, TDE = time-dependent effect"}, "[12]": {"molecular_target": "Mitogen-activated protein kinase 3 (Homo sapiens, UniProt P27361)", "sequence (P27361 whole entry)": "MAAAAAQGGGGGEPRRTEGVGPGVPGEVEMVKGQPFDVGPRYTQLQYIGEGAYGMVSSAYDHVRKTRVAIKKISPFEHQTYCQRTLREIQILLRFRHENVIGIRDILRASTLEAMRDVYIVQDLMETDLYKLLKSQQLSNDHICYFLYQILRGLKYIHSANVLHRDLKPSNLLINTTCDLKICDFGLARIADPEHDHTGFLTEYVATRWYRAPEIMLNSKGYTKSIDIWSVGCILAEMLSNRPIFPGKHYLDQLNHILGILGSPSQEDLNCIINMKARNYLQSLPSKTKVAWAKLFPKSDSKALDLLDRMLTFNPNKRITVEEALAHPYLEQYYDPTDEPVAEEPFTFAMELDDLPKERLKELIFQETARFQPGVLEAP", "assay": "Inhibition of ERK1 (unknown origin)"}, "[13]": {"molecular_target": "T1, Signal transducer and activator of transcription 3", "assay": "Inhibition of STAT3 phosphorylation at Tyr705 residue in human MGC-803 cells incubated upto 24 hrs by Western blotting analysis", "type": "cell-based", "details": "dose <= 40.0 nM, DDE = dose-dependent effect"}, "[14]": {"tested_on": "MKN-45", "assay": "Induction of apoptosis in human MKN-45 cells assessed as necrotic cells 20 nM incubated for 48 hrs by FITC-annexin V/propidium iodide staining based flow cytometry (reference value: 10.3%)", "type": "functional"}, "[15]": {"molecular_target": "T1, Signal transducer and activator of transcription 3", "assay": "Inhibition of STAT3 phosphorylation at Tyr705 residue in human MKN-45 cells upto 40 nM by Western blotting analysis", "type": "cell-based", "details": "time <= 24.0 hrs, TDE = time-dependent effect"}, "[16]": {"assay": "Toxicity in BALB/c nude mouse xenografted with human MKN-45 cells assessed as spleen damage at 25 to 50 mg/kg, po qd administered for 5 weeks by H and E staining based analysis", "type": "organism-based", "details": "in vivo, 840 h, dose 25-50 mg/kg"}, "[17]": {"tested_on": "MKN-45", "assay": "Inhibition of STAT3 mediated oxidative phosphorylation at Ser727 residue in human MKN-45 cells assessed as reduction in oxidative phosphorylation at less than 40 nM incubated for 1 hr by Seahorse XF24 extracellular flux analyzer", "type": "functional, cell-based"}, "[18]": {"tested_on": "AGS", "assay": "Induction of apoptosis in human AGS cells assessed as viable cells at 20 nM incubated for 48 hrs by FITC-annexin V/propidium iodide staining based flow cytometry (reference value: 87.2%)", "type": "functional", "details": "read-out: Activity"}, "[19]": {"assay": "Apparent volume of distribution in ICR mouse plasma at 1 mg/kg, iv measured up to 24 hrs by LC-MS/MS analysis", "type": "ADME, organism-based", "details": "read-out: Vz"}, "[20]": {"tested_on": "MKN-45", "assay": "In vivo inhibition of STAT3 phosphorylation at Ser727 residue in human MKN-45 cells xenografted in BALB/c nude mouse at 25 to 50 mg/kg, po qd administered for 5 weeks by immunohistochemical analysis", "type": "functional, organism-based", "details": "dose 25-50 mg/kg"}, "[21]": {"molecular_target": "T2, Cytochrome P450 1A2 (Homo sapiens, UniProt P05177)", "T2 sequence (P05177 whole entry)": "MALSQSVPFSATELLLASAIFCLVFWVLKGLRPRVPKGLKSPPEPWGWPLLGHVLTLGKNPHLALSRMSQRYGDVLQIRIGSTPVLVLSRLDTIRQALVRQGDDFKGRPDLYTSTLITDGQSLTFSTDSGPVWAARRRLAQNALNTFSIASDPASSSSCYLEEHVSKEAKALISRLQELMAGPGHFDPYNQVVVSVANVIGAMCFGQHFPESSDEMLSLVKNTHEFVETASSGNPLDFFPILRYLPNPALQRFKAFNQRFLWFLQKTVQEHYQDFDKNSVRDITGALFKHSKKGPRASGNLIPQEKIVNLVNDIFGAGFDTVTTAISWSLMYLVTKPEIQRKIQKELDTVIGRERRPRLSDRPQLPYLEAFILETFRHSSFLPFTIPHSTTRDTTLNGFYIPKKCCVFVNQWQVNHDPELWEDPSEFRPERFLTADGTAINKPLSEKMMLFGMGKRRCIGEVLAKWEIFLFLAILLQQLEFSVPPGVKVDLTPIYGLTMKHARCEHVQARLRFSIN", "assay": "Inhibition of CYP1A2 in human liver microsome", "type": "ADME, microsomes"}, "[22]": {"molecular_target": "T1, Signal transducer and activator of transcription 3", "assay": "Inhibition of STAT3 in human MGC-803 cells assessed as downregulation of cyclin D1 expression incubated up to 24 hrs by western blot analysis", "type": "cell-based", "details": "dose <= 40.0 nM, DDE = dose-dependent effect"}, "[23]": {"tested_on": "MKN-45", "assay": "Induction of apoptosis in human MKN-45 cells assessed as early apoptic cells 20 nM incubated for 48 hrs by FITC-annexin V/propidium iodide staining based flow cytometry (reference value: 2.79%)", "type": "functional"}, "[24]": {"assay": "Toxicity in […] mouse xenografted with human MKN-45 cells assessed as spleen damage at 25 to 50 mg/kg, po qd administered for 5 weeks by H and E staining based analysis", "type": "organism-based", "details": "in vivo, 840 h, dose 25-50 mg/kg"}, "[25]": {"molecular_target": "T1, Signal transducer and activator of transcription 3", "assay": "Inhibition of STAT3 in human MKN-45 cells assessed as downregulation of cyclin D1 expression incubated up to 24 hrs by western blot analysis", "type": "cell-based", "details": "dose <= 40.0 nM, DDE = dose-dependent effect"}, "[26]": {"molecular_target": "T1, Signal transducer and activator of transcription 3", "assay": "Inhibition of human recombinant STAT3 (127 to 722 residues) transcriptional activity expressed in HEK293T cells in presence of IL-6 by Dual-luciferase reporter gene assay", "type": "cell-based"}, "[27]": {"tested_on": "MGC-803", "assay": "Potency index, ratio of IC50 for BBI608 to IC50 for test compound for antiproliferative activity against human MGC-803 cells assessed as reduction in cell viability incubated for 72 hrs by MTS assay", "type": "functional"}, "[28]": {"assay": "Toxicity in […] mouse xenografted with human MKN-45 cells assessed as kidney damage at 25 to 50 mg/kg, po qd administered for 5 weeks by H and E staining based analysis", "type": "organism-based", "details": "in vivo, 840 h, dose 25-50 mg/kg"}, "[29]": {"molecular_target": "Cytochrome P450 2D6 (Homo sapiens, UniProt P10635)", "sequence (P10635 whole entry)": "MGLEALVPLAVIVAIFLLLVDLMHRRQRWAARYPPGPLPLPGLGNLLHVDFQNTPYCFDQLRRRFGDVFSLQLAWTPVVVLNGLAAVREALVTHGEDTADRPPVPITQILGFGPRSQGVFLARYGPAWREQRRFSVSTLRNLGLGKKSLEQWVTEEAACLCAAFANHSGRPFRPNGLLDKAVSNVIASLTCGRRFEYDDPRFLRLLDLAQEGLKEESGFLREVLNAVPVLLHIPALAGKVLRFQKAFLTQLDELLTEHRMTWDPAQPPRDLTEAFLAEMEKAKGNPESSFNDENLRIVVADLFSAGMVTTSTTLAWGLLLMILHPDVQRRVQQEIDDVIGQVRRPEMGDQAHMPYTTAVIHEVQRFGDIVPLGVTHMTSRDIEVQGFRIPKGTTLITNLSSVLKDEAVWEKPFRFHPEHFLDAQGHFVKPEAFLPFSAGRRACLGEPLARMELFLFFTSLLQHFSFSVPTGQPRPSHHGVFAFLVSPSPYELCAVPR", "assay": "Inhibition of CYP2D6 in human liver microsome", "type": "ADME, microsomes"}, "[30]": {"tested_on": "MKN-45", "assay": "Induction of apoptosis in human MKN-45 cells assessed as necrotic cells 5 nM incubated for 48 hrs by FITC-annexin V/propidium iodide staining based flow cytometry (reference value: 10.3%)", "type": "functional"}}, "note": "Calls of active or inactive are those of the source. No cut-off for these calls is given here."}
{"smiles": "O=C(c1ccc(-c2noc(-c3ccc(C(F)(F)F)cc3)n2)cc1)N1CCN(Cc2ccc(OCC(F)(F)F)cc2)CC1", "values": [{"measurement": "inhibition", "setting": "[1]", "value": "Active"}, {"measurement": "Activity", "setting": "[2]", "value": 3.8, "unit": "%"}, {"measurement": "inhibition", "setting": "[3]", "value": "Dde"}, {"measurement": "Activity", "setting": "[4]", "value": 4.73, "unit": "%"}, {"measurement": "inhibition", "setting": "[5]", "value": 100, "unit": "%"}, {"measurement": "inhibition", "setting": "[6]", "value": 100, "unit": "%"}, {"measurement": "inhibition", "setting": "[7]", "value": "Dde"}, {"measurement": "IC50", "setting": "[8]", "value": "> 10", "unit": "µM"}, {"measurement": "inhibition", "setting": "[9]", "value": "Active"}, {"measurement": "inhibition", "setting": "[10]", "value": "Dde"}, {"measurement": "inhibition", "setting": "[11]", "value": "Tde"}, {"measurement": "IC50", "setting": "[12]", "value": "> 10", "unit": "µM"}, {"measurement": "inhibition", "setting": "[13]", "value": "Dde"}, {"measurement": "Activity", "setting": "[14]", "value": 11.3, "unit": "%"}, {"measurement": "inhibition", "setting": "[15]", "value": "Tde"}, {"measurement": "Activity", "setting": "[16]", "value": "Non-Toxic"}, {"measurement": "inhibition", "setting": "[17]", "value": "Active"}, {"measurement": "viability at 0.02 µM", "setting": "[18]", "value": 50.3, "unit": "%"}, {"measurement": "Vd", "setting": "[19]", "value": 5.76, "unit": "L/kg"}, {"measurement": "inhibition", "setting": "[20]", "value": "Active"}, {"measurement": "IC50", "setting": "[21]", "value": "> 50", "unit": "µM"}, {"measurement": "inhibition", "setting": "[22]", "value": "Dde"}, {"measurement": "Activity", "setting": "[23]", "value": 5.06, "unit": "%"}, {"measurement": "Activity", "setting": "[24]", "value": "Non-Toxic"}, {"measurement": "inhibition", "setting": "[25]", "value": "Dde"}, {"measurement": "IC50", "setting": "[26]", "value": 0.0278, "unit": "µM"}, {"measurement": "Ratio IC50", "setting": "[27]", "value": 30}, {"measurement": "Activity", "setting": "[28]", "value": "Non-Toxic"}, {"measurement": "IC50", "setting": "[29]", "value": "> 50", "unit": "µM"}, {"measurement": "Activity", "setting": "[30]", "value": 8.54, "unit": "%"}]}
